Consider 18 compounds from patent US20220048944A1, “FUNC[…] AS ANTIVIRAL AGENTS” (Enanta Pharmaceuticals, Inc., priority 2020, published 2022).

This assay addresses SARS-CoV-2 3CL-protease (Severe acute respiratory syndrome coronavirus 2, UniProt P0DTD1). Put plainly: SARS-CoV-2 3C-like (3CL) protease fluorescence assay (FRET). It counts as biochemical. The settings on record: recombinant SARS-CoV-2 3CL-protease 10 nM, TAMRA-[…]-Dabcyl-OH substrate, 30 min preincubation at RT, run in duplicate.

Usually IC50 stands for the concentration that gives 50% inhibition.

Experimental: SARS-CoV-2 3C-like (3CL) protease fluorescence assay (FRET): Recombinant SARS-CoV-2 3CL-protease was expressed and purified. […] Black, low volume, round-bottom, 384 well microplates were used. In a typical assay, 0.85 μL of test compound was dissolved in DMSO then incubated with SARS-CoV-2 3CL-protease (10 nM) in 10 μL assay buffer (50 mM HEPES [pH 7.5], 1 mM DTT, 0.01% BSA, 0.01% Triton-X 100) for 30 min at RT. Next, 10 μL of 3CL-protease substrate (40 μM) in assay buffer was added and the assays were monitored continuously for 1 h in an Envision multimode plate reader operating in fluorescence kinetics mode with excitation at 540 nm and emission at 580 nm at RT. No compound (DMSO only) and no enzyme controls were routinely included in each plate. All experiments were run in duplicate.
Data were fitted to normalized activity (variable slope) versus concentration fit in GraphPad Prism 7 to determine IC50.

Consider `COc1cccc2[nH]c(C(=O)N[C@@H](CC(C)C)C(=O)N[C@H](C#N)C[C@@H]3CCCNC3=O)cc12` [Example 16, N—((S)-1-(((S)-1-cyano-2-((S)-2-oxopiperidin-3-yl)ethyl)amino)-4-methyl-1-oxopentan-2-yl)-4-methoxy-1H-indole-2-carboxamide], for which the IC50 is under 0.1 µM.

Take `COc1cccc2[nH]c(C(=O)N[C@@H](CSC)C(=O)N[C@H](C#N)C[C@@H]3CCNC3=O)cc12` [Example 24, N—((R)-1-(((S)-1-cyano-2-((S)-2-oxopyrrolidin-3-yl)ethyl)amino)-3-(methylthio)-1-oxopropan-2-yl)-4-methoxy-1H-indole-2-carboxamide]: the concentration for half-maximal inhibition (IC50) was 0.1 to 1 µM.

In the case of `COc1cccc2[nH]c(C(=O)N[C@H](C(=O)N[C@H](C#N)C[C@@H]3CCNC3=O)C(C)(C)C)cc12` [Example 19, N—((S)-1-(((S)-1-cyano-2-((S)-2-oxopyrrolidin-3-yl)ethyl)amino)-3,3-dimethyl-1-oxobutan-2-yl)-4-methoxy-1H-indole-2-carboxamide], the IC50 was over 1 µM.

As to `COc1cccc2[nH]c(C(=O)N[C@@H](CCc3ccccc3)C(=O)N[C@H](C#N)C[C@@H]3CCNC3=O)cc12` [Example 8, N—((S)-1-(((S)-1-cyano-2-((S)-2-oxopyrrolidin-3-yl)ethyl)amino)-1-oxo-4-phenylbutan-2-yl)-4-methoxy-1H-indole-2-carboxamide], the IC50 lay within 0.1 to 1 µM.

As to `COc1cccc2[nH]c(C(=O)N[C@@H](Cc3ccccc3)C(=O)N[C@H](C#N)C[C@@H]3CCCNC3=O)cc12` [Example 18, N—((S)-1-(((S)-1-cyano-2-((S)-2-oxopiperidin-3-yl)ethyl)amino)-1-oxo-3-phenylpropan-2-yl)-4-methoxy-1_H-indole-2-carboxamide], the IC50 fell in the range of 0.1 to 1 µM.

Take `COc1cccc2[nH]c(C(=O)N[C@@H](CCSC)C(=O)N[C@H](C#N)C[C@@H]3CCNC3=O)cc12` [Example 12, N—((S)-1-(((S)-1-cyano-2-((S)-2-oxopyrrolidin-3-yl)ethyl)amino)-4-(methylthio)-1-oxobutan-2-yl)-4-methoxy-1H-indole-2-carboxamide]: the IC50 was in the range of 0.1 to 1 µM.

In the case of `COc1cccc2[nH]c(C(=O)N[C@@H](CC(F)(F)F)C(=O)N[C@H](C#N)C[C@@H]3CCNC3=O)cc12` [Example 25, N—((S)-1-(((S)-1-cyano-2-((S)-2-oxopyrrolidin-3-yl)ethyl)amino)-4,4,4-trifluoro-1-oxobutan-2-yl)-4-methoxy-1H-indole-2-carboxamide], the IC50 fell in the range of 0.1 to 1 µM.

As to `N#C[C@H](C[C@@H]1CCCNC1=O)NC(=O)[C@H](CC1CCCCC1)NC(=O)c1cc2ccccc2o1` [Example 15, N—((S)-1-(((S)-1-cyano-2-((S)-2-oxopiperidin-3-yl)ethyl)amino)-3-cyclohexyl-1-oxopropan-2-yl)benzofuran-2-carboxamide], the 50% inhibitory concentration (IC50) lay within 0.1 to 1 µM.

Consider `CC(C)C[C@H](NC(=O)c1cc2ccccc2o1)C(=O)N[C@H](C#N)C[C@@H]1CCNC1=O` [Example 13, N—((S)-1-(((S)-1-cyano-2-((S)-2-oxopyrrolidin-3-yl)ethyl)amino)-4-methyl-1-oxopentan-2-yl)benzofuran-2-carboxamide], for which the IC50 is over 1 µM.

On to `CC(C)C[C@H](NC(=O)c1cc2ccccc2[nH]1)C(=O)N[C@H](C#N)C[C@@H]1CCNC1=O` [Example 2, N—((S)-1-(((S)-1-cyano-2-((S)-2-oxopyrrolidin-3-yl)ethyl)amino)-4-methyl-1-oxopentan-2-yl)-1H-indole-2-carboxamide], for which the IC50 is 0.1 to 1 µM.

On to `COc1cccc2[nH]c(C(=O)N[C@H](C(=O)N[C@H](C#N)C[C@@H]3CCNC3=O)C(C)C)cc12` [Example 7, N—((S)-1-(((S)-1-cyano-2-((S)-2-oxopyrrolidin-3-yl)ethyl)amino)-3-methyl-1-oxobutan-2-yl)-4-methoxy-1H-indole-2-carboxamide], for which the IC50 is over 1 µM.

As to `COc1cccc2[nH]c(C(=O)N[C@H](C(=O)N[C@H](C#N)C[C@@H]3CCNC3=O)C3CCCCC3)cc12` [Example 6, N—((S)-2-(((S)-1-cyano-2-((S)-2-oxopyrrolidin-3-yl)ethyl)amino)-1-cyclohexyl-2-oxoethyl)-4-methoxy-1H-indole-2-carboxamide], the half-inhibitory concentration (IC50) is over 1 µM.

For `COc1cccc2[nH]c(C(=O)N[C@H](C(=O)N[C@H](C#N)C[C@@H]3CCNC3=O)c3ccccc3)cc12` [Example 5, N—((S)-2-(((S)-1-cyano-2-((S)-2-oxopyrrolidin-3-yl)ethyl)amino)-2-oxo-1-phenylethyl)-4-methoxy-1H-indole-2-carboxamide], the IC50 was over 1 µM.

Regarding `COc1cccc2[nH]c(C(=O)N[C@@H](Cc3ccccc3)C(=O)N[C@H](C#N)C[C@@H]3CCNC3=O)cc12` [Example 3, N—((S)-1-(((S)-1-cyano-2-((S)-2-oxopyrrolidin-3-yl)ethyl)amino)-1-oxo-3-phenylpropan-2-yl)-4-methoxy-1H-indole-2-carboxamide], the IC50 lay within 0.1 to 1 µM.

With `COc1cccc2[nH]c(C(=O)N[C@@H](CC3CCCC3)C(=O)N[C@H](C#N)C[C@@H]3CCNC3=O)cc12` [Example 10, N—((S)-1-(((S)-1-cyano-2-((S)-2-oxopyrrolidin-3-yl)ethyl)amino)-3-cyclopentyl-1-oxopropan-2-yl)-4-methoxy-1H-indole-2-carboxamide], the IC50 fell in the range of 0.1 to 1 µM.

With `N#C[C@H](C[C@@H]1CCNC1=O)NC(=O)[C@H](CC1CCCCC1)NC(=O)c1cc2ccccc2o1` [Example 22, N—((S)-1-(((S)-1-cyano-2-((S)-2-oxopyrrolidin-3-yl)ethyl)amino)-3-cyclohexyl-1-oxopropan-2-yl)benzofuran-2-carboxamide], the IC50 is over 1 µM.

Take `COc1cccc2[nH]c(C(=O)N[C@@H](CC3CCCCC3)C(=O)N[C@H](C#N)C[C@@H]3CCCNC3=O)cc12` [Example 14, N—((S)-1-(((S)-1-cyano-2-((S)-2-oxopiperidin-3-yl)ethyl)amino)-3-cyclohexyl-1-oxopropan-2-yl)-4-methoxy-1H-indole-2-carboxamide]: the IC50 was under 0.1 µM.

Turning to `COc1cccc2[nH]c(C(=O)N[C@@H](CCCc3ccccc3)C(=O)N[C@H](C#N)C[C@@H]3CCNC3=O)cc12` [Example 11, N—((S)-1-(((S)-1-cyano-2-((S)-2-oxopyrrolidin-3-yl)ethyl)amino)-1-oxo-5-phenylpentan-2-yl)-4-methoxy-1H-indole-2-carboxamide], the concentration for half-maximal inhibition (IC50) was over 1 µM.
